Measured values taken from ChEMBL document CHEMBL3804786, “Novel 1,3-thiazolidin-4-one derivatives as promising anti-Candida agents endowed with anti-oxidant and chelating properties” (Eur J Med Chem, 2016).
≈ marks a conversion by molar mass, not a printed value.

Key:
Enterococcus faecalis = assay: Antibacterial activity against Streptococcus faecalis clinical isolate after 18 to 22 hrs by broth microdilution method; type: functional
Proteus mirabilis = assay: Antibacterial activity against Proteus mirabilis clinical isolate after 18 to 22 hrs by broth microdilution method; type: functional
[1] = Antioxidant activity assessed as ABTS radical scavenging activity after 30 mins under dark conditions; type: physicochemical
Escherichia coli = assay: Antibacterial activity against Escherichia coli after clinical isolate 18 to 22 hrs by broth microdilution method; type: functional
[Candida] sake = Antifungal activity against Candida sake clinical isolate after 24 hrs by broth microdilution method; type: functional; details: Fermentozyma sake
[2] = Antioxidant activity of the compound after 90 mins by phosphomolybdenum assay; type: physicochemical
[3] = Cytotoxicity against human Hep2 cells assessed as reduction in cell viability after 24 hrs by trypan blue exclusion assay; type: cell-based, HEp-2
[4] = Antioxidant activity assessed as DPPH radical scavenging activity after 30 mins under dark conditions; type: physicochemical
Staphylococcus warneri = assay: Antibacterial activity against Staphylococcus warneri clinical isolate after 18 to 22 hrs by broth microdilution method; type: functional
Klebsiella oxytoca = assay: Antibacterial activity against Klebsiella oxytoca clinical isolate after 18 to 22 hrs by broth microdilution method; type: functional
[5] = Antioxidant activity of the compound after 30 mins by FRAP assay; type: physicochemical
[6] = Cytotoxicity against human Hep2 cells assessed as cell survival at 0.5 ug/ml after 24 hrs by trypan blue exclusion assay; type: cell-based, HEp-2; details: read-out: Survival
[7] = Cytotoxicity against human Hep2 cells assessed as cell survival at 5 ug/ml after 24 hrs by trypan blue exclusion assay; type: cell-based, HEp-2; details: read-out: Survival
Nakaseomyces glabratus = assay: Antifungal activity against Candida glabrata clinical isolate after 24 hrs by broth microdilution method; type: functional
Enterobacter sp. = assay: Antibacterial activity against Enterobacter spp. clinical isolate after 18 to 22 hrs by broth microdilution method; type: functional
Pichia kudriavzevii = assay: Antifungal activity against Candida krusei clinical isolate after 24 hrs by broth microdilution method; type: functional
[8] = test system: Streptococcus sp. (viridans group); assay: Antibacterial activity against Streptococcus alpha-hemolyticus clinical isolate after 18 to 22 hrs by broth microdilution method
[9] = Cytotoxicity against human Hep2 cells assessed as cell survival at 50 ug/ml after 24 hrs by trypan blue exclusion assay; type: cell-based, HEp-2; details: read-out: Survival
Candida albicans = assay: Antifungal activity against Candida albicans clinical isolate after 24 hrs by broth microdilution method; type: functional
Staphylococcus aureus = assay: Antibacterial activity against Staphylococcus aureus clinical isolate after 18 to 22 hrs by broth microdilution method; type: functional
Candida parapsilosis = assay: Antifungal activity against Candida parapsilosis clinical isolate after 24 hrs by broth microdilution method; type: functional; details: Lodderomyces parapsilosis
[10] = Metal chelating activity of the compound assessed as ferrous ion complex formation after 10 mins; type: physicochemical
[11] = Antioxidant activity of the compound after 30 mins by CUPRAC method; type: physicochemical
[12] = Cytotoxicity against human Hep2 cells assessed as cell survival at 10 ug/ml after 24 hrs by trypan blue exclusion assay; type: cell-based, HEp-2; details: read-out: Survival
[13] = Cytotoxicity against human Hep2 cells assessed as cell survival at 0.05 ug/ml after 24 hrs by trypan blue exclusion assay; type: cell-based, HEp-2; details: read-out: Survival
Candida tropicalis = assay: Antifungal activity against Candida tropicalis clinical isolate after 24 hrs by broth microdilution method; type: functional

O=C1CS/C(=N\N=C2CCCC2)N1Cc1ccccc1F
MIC (Enterococcus faecalis): > 256 mg/L | MIC (Proteus mirabilis): > 256 mg/L | IC50 [1]: 12.4 mM | MIC (Escherichia coli): > 256 mg/L | MIC ([Candida] sake): 2 mg/L (≈ 6.55 µM) | EC50 [2]: 0.7 mM | CC50 at 24 h [3]: 11 mg/L (≈ 36 µM) | IC50 [4]: > 5 mM | MIC (Staphylococcus warneri): > 256 mg/L | MIC (Klebsiella oxytoca): > 256 mg/L | EC50 [5]: 5.63 mM | viability at 24 h, 0.5 ug/ml [6]: 69% | viability at 24 h, 5 ug/ml [7]: 52% | MIC (Nakaseomyces glabratus): 2 mg/L (≈ 6.55 µM) | MIC (Enterobacter sp.): > 256 mg/L | MIC (Pichia kudriavzevii): 8 mg/L (≈ 26.2 µM) | MIC [8]: > 256 mg/L | viability at 24 h, 50 ug/ml [9]: 0% | MIC (Candida albicans): 2 mg/L (≈ 6.55 µM) | MIC (Staphylococcus aureus): > 256 mg/L | MIC (Candida parapsilosis): 2 mg/L (≈ 6.55 µM) | IC50 [10]: > 5 mM | EC50 [11]: 2.37 mM | viability at 24 h, 10 ug/ml [12]: 37% | viability at 24 h, 0.05 ug/ml [13]: 82% | MIC (Candida tropicalis): 2 mg/L (≈ 6.55 µM)

C/C(=N/N=C1\SCC(=O)N1Cc1ccccc1[N+](=O)[O-])c1cccs1
MIC (Enterococcus faecalis): > 256 mg/L | MIC (Proteus mirabilis): > 256 mg/L | IC50 [1]: 18.1 mM | MIC (Escherichia coli): > 256 mg/L | MIC ([Candida] sake): 2 mg/L (≈ 5.34 µM) | EC50 [2]: 1.12 mM | CC50 at 24 h [3]: 20 mg/L (≈ 53.4 µM) | IC50 [4]: > 5 mM | MIC (Staphylococcus warneri): > 256 mg/L | MIC (Klebsiella oxytoca): > 256 mg/L | EC50 [5]: 2.4 mM | viability at 24 h, 0.5 ug/ml [6]: 84% | viability at 24 h, 5 ug/ml [7]: 74% | MIC (Nakaseomyces glabratus): 2 mg/L (≈ 5.34 µM) | MIC (Enterobacter sp.): > 256 mg/L | MIC (Pichia kudriavzevii): 2 mg/L (≈ 5.34 µM) | MIC [8]: > 256 mg/L | viability at 24 h, 50 ug/ml [9]: 0% | MIC (Candida albicans): 2 mg/L (≈ 5.34 µM) | MIC (Staphylococcus aureus): > 256 mg/L | MIC (Candida parapsilosis): 8 mg/L (≈ 21.4 µM) | IC50 [10]: > 5 mM | EC50 [11]: 2.25 mM | viability at 24 h, 10 ug/ml [12]: 61% | viability at 24 h, 0.05 ug/ml [13]: 88% | MIC (Candida tropicalis): 4 mg/L (≈ 10.7 µM)

CC(C)=N/N=C1\SCC(=O)N1Cc1cccc([N+](=O)[O-])c1
MIC (Enterococcus faecalis): > 256 mg/L | MIC (Proteus mirabilis): > 256 mg/L | IC50 [1]: 19.4 mM | MIC (Escherichia coli): > 256 mg/L | MIC ([Candida] sake): 2 mg/L (≈ 6.53 µM) | EC50 [2]: 1.24 mM | CC50 at 24 h [3]: 5 mg/L (≈ 16.3 µM) | IC50 [4]: > 5 mM | MIC (Staphylococcus warneri): > 256 mg/L | MIC (Klebsiella oxytoca): > 256 mg/L | EC50 [5]: 5.29 mM | viability at 24 h, 0.5 ug/ml [6]: 68% | viability at 24 h, 5 ug/ml [7]: 51% | MIC (Nakaseomyces glabratus): 2 mg/L (≈ 6.53 µM) | MIC (Enterobacter sp.): > 256 mg/L | MIC (Pichia kudriavzevii): 2 mg/L (≈ 6.53 µM) | MIC [8]: > 256 mg/L | viability at 24 h, 50 ug/ml [9]: 0% | MIC (Candida albicans): 2 mg/L (≈ 6.53 µM) | MIC (Staphylococcus aureus): > 256 mg/L | MIC (Candida parapsilosis): 16 mg/L (≈ 52.2 µM) | IC50 [10]: > 5 mM | EC50 [11]: 2.35 mM | viability at 24 h, 10 ug/ml [12]: 0% | viability at 24 h, 0.05 ug/ml [13]: 79% | MIC (Candida tropicalis): 2 mg/L (≈ 6.53 µM)

O=C1CS/C(=N\N=C2CCCC2)N1Cc1ccc(Cl)cc1
MIC (Enterococcus faecalis): > 256 mg/L | MIC (Proteus mirabilis): > 256 mg/L | IC50 [1]: 18.3 mM | MIC (Escherichia coli): > 256 mg/L | MIC ([Candida] sake): 4 mg/L (≈ 12.4 µM) | EC50 [2]: 0.56 mM | CC50 at 24 h [3]: 16 mg/L (≈ 49.7 µM) | IC50 [4]: > 5 mM | MIC (Staphylococcus warneri): > 256 mg/L | MIC (Klebsiella oxytoca): > 256 mg/L | EC50 [5]: 4.8 mM | viability at 24 h, 0.5 ug/ml [6]: 83% | viability at 24 h, 5 ug/ml [7]: 59% | MIC (Nakaseomyces glabratus): 2 mg/L (≈ 6.21 µM) | MIC (Enterobacter sp.): > 256 mg/L | MIC (Pichia kudriavzevii): 8 mg/L (≈ 24.9 µM) | MIC [8]: > 256 mg/L | viability at 24 h, 50 ug/ml [9]: 0% | MIC (Candida albicans): 2 mg/L (≈ 6.21 µM) | MIC (Staphylococcus aureus): > 256 mg/L | MIC (Candida parapsilosis): 2 mg/L (≈ 6.21 µM) | IC50 [10]: > 5 mM | EC50 [11]: 2.1 mM | viability at 24 h, 10 ug/ml [12]: 47% | viability at 24 h, 0.05 ug/ml [13]: 89% | MIC (Candida tropicalis): 2 mg/L (≈ 6.21 µM)
